Results from patent publication US7345026B2, “Hybrid or chimeric polynucleotides, proteins, and compositions comprising hepatitis B virus sequences” (Institut Pasteur, priority 1999, dated 2008).
Several values for one entry are separate records, joined by “and”; a condition that tells them apart may be missing. Equal values may be shown once. Entries after “also recorded” stand apart in the source; their conditions may differ. Read-outs that look alike come from different tables or passages of the source.

Tests used:
[1] = test system: peptide-loaded HHD-transfected RMA-S cells; design: species or system HHD mice; conditions: mouse, in vivo
[2] = test system: HHD-transfected RMA-S target cells loaded with relevant peptides; design: species or system HHD mice; conditions: mouse, in vivo
[3] = test system: HHD-transfected RMA-S cells loaded with relevant peptides; design: species or system HHD mice; conditions: in vivo
HLA-A2.1 molecules = HLA-A2.1 molecules (Homo sapiens, UniProt P04439, D140Y/D185E/D98H/E176V/E277Q/G131W/G231S/I119V/I121R/I166T/I218V/L300P/L318F/N151K/N90K/P208A/P217A/Q86G/Q94H/R138H/R169H/T345S)
[4] = test system: HHD-transfected RMA-S cells loaded with relevant peptides; design: species or system A2A2Kb mice; conditions: in vivo, sc
[5] = test system: HHD-transfected RMAS cells loaded with relevant peptides; design: species or system HHD mice; conditions: mouse, in vivo, iv
[6] = test system: HHD-transfected RMAS cells loaded with relevant peptides; design: species or system HHD mice; conditions: mouse, in vivo
[7] = test system: HHD-transfected RMAS cells loaded with relevant peptides; design: species or system HHD mice; conditions: mouse, in vivo; remark: listed apart in the source

Sequence | CTL response against the epitope after polyepitope immunization (in words) [1] | CTL response when co-injected with helper peptide (in words) [2] | lysis in % [2] | CTL inducer hierarchy (in words) ([3]; mouse) | other results
KTWGQYWQV [gp100.154] | Strong responses | stronger responses in a larger proportion of mice | (43, 59, 60, 64, 77. 77, 80, 82, 85) % | strong | –
MLLAVLYCL (listed as Homo sapiens) [Tyrosinase.1] | No specific lysis; also recorded: did not elicit CTL responses | good CTL responses in a large proportion of mice | (27, 33, 40, 42, 51) % | inefficient | –
ILTVILGVL (listed as Homo sapiens) [Melan-A/MART-1.32] | No specific lysis; also recorded: did not elicit CTL responses | – | – | inefficient | –
IISAVVGIL (listed as Homo sapiens) [Her2/neu.654] | – | – | – | weak | lysis in % (maximal lysis observed for each responder mouse) ([3]; sc): (42) %
YMNGTMSOV (YMNGTMSV; listed as Homo sapiens) [Tyrosinase.368-N] | – | – | (21, 36, 70, 72, 78) % | intermediate | RA (relative affinity) (HLA-A2.1 molecules): 2.2; R/T (responder versus tested mice) ([4]; mouse): 0/6; R/T (responder versus tested mice) ([2]; sc): 5/12; R/T (responder versus tested mice) ([3]; mouse, sc): 4/15
YLEPGPVTA [gp100.280] | No specific lysis; also recorded: did not elicit CTL responses | – | (12, 16) % | weak | lysis in % (highest specific lysis) [5]: 0 (1) % and 0 (0) %; lysis in % following a second in vitro restimulation (numbers in parentheses) [5]: 0 (1) % and 0 (0) %; CTL responses (in words) [6]: Some responses of weak to strong magnitude; CTL responses (in words) [7]: Some responses of weak to strong magnitude
ITDQVPFSV [gp100.209] | – | – | (31, 36, 56) % | weak | lysis in % (maximal lysis observed for each responder mouse) ([3]; sc): (23) %
VLYRYGSFSV (listed as Homo sapiens) [gp100.476] | did not elicit CTL responses | – | (20, 22, 59, 63, 75, 79) % | weak | lysis in % (maximal lysis observed for each responder mouse) [4]: (29) %; lysis in % (maximal lysis observed for each responder mouse) ([3]; sc): (54, 70) %
YMDGTMSQV [Tyrosinase.368-D] | elicited CTL responses depending on mice | – | (13, 15) % | weak | CTL responses (in words) [6]: Some responses of weak to strong magnitude; lysis in % (maximal lysis observed for each responder mouse) ([3]; sc): (10) %
TLGIVCPI (listed as Homo sapiens) [HPV E7.86] | – | – | (34, 48) % | inefficient | lysis in % (maximal lysis observed for each responder mouse) [4]: (10, 13) %
STPPPGTRV (listed as Homo sapiens) [p53.149] | – | – | (20, 51, 71) % | inefficient | –
YLSGANLNL (listed as Homo sapiens) [CEA.571] | – | less immunogenic | (20, 32, 46) % | strong | lysis in % (highest specific lysis) [5]: 4 (1) % and 1 (5) % and 1 (2) % and 0 (0) % and 2 (0) % and 4 (22) %; lysis in % following a second in vitro restimulation (numbers in parentheses) [5]: 4 (1) % and 1 (5) % and 1 (2) % and 0 (0) % and 2 (0) % and 4 (22) %
LLGRNSFEV (listed as Homo sapiens) [p53.264] | – | – | (37, 64) % | inefficient; also recorded: poor CTL-induction capacity | –
RMPEAAPPV (listed as Homo sapiens) [p53.65] | – | stronger responses in a larger proportion of mice | (29, 31, 40, 41, 55) % | intermediate | –
VLPDVFIRC (listed as Homo sapiens) [NA17-A.nt38] | Strong responses | stronger responses in a larger proportion of mice | (36, 39, 61,64, 71) % | intermediate | lysis in % (highest specific lysis) [5]: 0 (6) % and 3 (5) % and 5 (24) % and 3 (9) % and 6 (7) % and 0 (2) %; lysis in % following a second in vitro restimulation (numbers in parentheses) [5]: 0 (6) % and 3 (5) % and 5 (24) % and 3 (9) % and 6 (7) % and 0 (2) %
LLDGTATLRL [gp100.457] | Significant responses | good CTL responses in a large proportion of mice; also recorded: strong CTL-inducers when associated with a helper peptide | (14, 35, 43, 77, 79) % | inefficient | –
